Measurements as given in US10391160B2, “Dimethyl fumarate and vaccination regimens” (Biogen MA Inc., priority 2014, dated 2019).

Assay: healthy volunteer study of flushing on DMF dosing with aspirin pre-treatment
Assay type: in vivo, human
Conditions: 325 mg non-enteric coated aspirin 30 minutes prior to DMF dosing; healthy volunteers
Description: Subjects receiving a vaccine who experience flushing may be administered (e.g., 30 min. prior to DMF dosing) about 325 mg of aspirin to reduce flushing. Some patients who experience flushing with gastrointestinal side effects may reduce the dose to 120 mg DMF BID temporarily. Within a month, the effective dose of 240 mg DMF BID should be resumed.

CC(=O)Oc1ccccc1C(=O)O [aspirin]
occurrence and severity of flushing: reduce the occurrence and severity of flushing
